These results are taken from US11712439B2, “Methods and materials for identifying and treating bet inhibitor-resistant cancers” (Mayo Foundation for Medical Education and Research, priority 2017, dated 2023).

This assay concerns 22Rv1 cells. In words: Cell proliferation assay (MTS) and trypan blue assay, 22Rv1 cells. It counts as cell-based, human. The note with it: JQ1 0.25 μM every other day. Here is the method:
CellTiter 96® AQueous One Solution Cell Proliferation Assay (MTS) (Promega) was used to measure cell growth according to the manufacturer's instructions. Briefly, cells were plated in 96-well plates at a density of 2,000 cells per well. At the indicated times, 20 μL of Cell Titer 96R Aqueous One Solution Reagent was added to medium. After incubating for 1 hour at 37° C. in the cell incubator, cell growth was measured in a microplate reader at 490 nm.
Trypan blue assay was performed to measure cell growth according to the manufacturer's instructions. Briefly, cells were plated in 6-well plates at a density of about 5×10^4 to about 1×10^5 cells per well. At the indicated time points, cells were trypsinized and suspended in 1 mL 1×PBS. 100 μL cells and 100 μL trypan blue solution (Sigma-Aldrich) were mixed, and the number of viable cells was measured using the Bio-Rad automated cell counter.

For `Cc1sc2c(c1C)C(c1ccc(Cl)cc1)=N[C@@H](CC(=O)OC(C)(C)C)c1nnc(C)n1-2` [JQ1], under “SPOP-F133V-expressing 22Rv1 cells”, the “Cell growth inhibition in SPOP-F133V-expressing cells” value is reported as “largely impeded”. Moreover, the Cell growth entry (empty vector (EV)-expressing 22Rv1 cells) was “inhibited growth”.
